Counter-ions that a name gives are not always drawn.
Legend:
human CDK4/cyclin D3 = molecular target: T1, human CDK4/cyclin D3 (Homo sapiens, UniProt P11802); test: Inhibition of CDK4/cyclin D retinoblastoma kinase activity (Ki; % inhibition); format: biochemical; conditions: for Ki: apparent Ki, CDK4/cyclin D3, Rb substrate
T1 construct: made in house; host or cells: insect cells co-infected with baculovirus vectors
How it was run: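 Insect-cell-expressed CDK4 with truncated cyclin D3 (1-264), 5 nM, phosphorylating His-tagged Rb fragment (386-928) with 25 μM [32/33P]ATP at pH 7.4, 30 °C, 20 min (60 min for tight binders). Filter capture, phosphorimager read; % inhibition at 30 nM compound, Ki from competitive or tight-binding fits.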

CDK2/cyclin A = molecular target: T2, CDK2/cyclin A (Homo sapiens, UniProt P24941); test: Inhibition of CDK2/cyclin A retinoblastoma kinase activity (Ki; % inhibition); format: biochemical; conditions: for Ki: apparent Ki, CDK2/cyclin A, Rb substrate
T2 construct: made in house; host or cells: CDK2: insect cells (baculovirus); cyclin A: E. coli
How it was run: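 Radiometric filter assay of CDK2/proteolyzed cyclin A (baculovirus-expressed human CDK2, 10 or 19 nM) phosphorylating an Rb fragment with 25 μM [³²P/³³P]ATP in pH 7.4 HEPES, 2% DMSO, at 30 °C for 60 or 75 min under initial-rate conditions. Library compounds screened at 30 nM for % inhibition; apparent Ki from concentration series fit to competitive or tight-binding inhibition equations.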

HCT-116 cell line = test: Inhibition of cell growth, MTT tetrazolium salt assay; format: cell-based; conditions: for IC50: Homo sapiens, HCT-116, 120 h, MTT, three to five days
How it was run: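 Growth inhibition was read as MTT-formazan absorbance at 540 nm, after 4 h with 0.2 mg/mL MTT. Before that, HCT-116 cells had been exposed 3–5 days at 37 °C to compounds in 0.5% (v/v) DMSO, added 4 h after plating. 50% and 90% inhibitory concentrations were taken from semi-log concentration–inhibition plots versus vehicle controls.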

[1] = HCT-116 cells, 0.25 μM compound

T1 sequence (P11802 whole entry): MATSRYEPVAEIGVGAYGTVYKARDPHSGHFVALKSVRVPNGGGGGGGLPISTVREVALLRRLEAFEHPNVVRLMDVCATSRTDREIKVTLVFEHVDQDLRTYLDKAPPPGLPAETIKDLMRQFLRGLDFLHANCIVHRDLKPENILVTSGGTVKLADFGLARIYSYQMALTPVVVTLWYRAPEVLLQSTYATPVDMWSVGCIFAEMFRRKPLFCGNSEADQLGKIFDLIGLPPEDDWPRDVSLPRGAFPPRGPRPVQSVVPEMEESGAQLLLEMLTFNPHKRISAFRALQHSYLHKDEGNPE
T1 sequence (P30281 1-264 partner limits assumed): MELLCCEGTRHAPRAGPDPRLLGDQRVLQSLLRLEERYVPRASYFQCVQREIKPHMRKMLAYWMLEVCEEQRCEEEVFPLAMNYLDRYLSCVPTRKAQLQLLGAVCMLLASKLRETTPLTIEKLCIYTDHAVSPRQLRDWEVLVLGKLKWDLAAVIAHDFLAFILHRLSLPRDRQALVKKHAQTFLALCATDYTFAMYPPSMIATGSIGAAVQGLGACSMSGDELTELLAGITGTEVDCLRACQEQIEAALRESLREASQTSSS

Compound | CDK4 % Inhibition at 0.03 μM (human CDK4/cyclin D3; 0.03 μM compound) [%] | CDK2 % Inhibition at 0.03 μM (CDK2/cyclin A; 0.03 μM compound) [%] | HCT-116 % Inhibition at 0.1 μM (HCT-116 cell line; HCT-116 cells, 0.1 μM compound) [%] | HCT-116 % Inhibition at 0.25 μM (HCT-116 cell line; [1]) [%] | CDK4 % Inhibition at 0.03 μM (human CDK4/cyclin D3; at 0.03 μM) [%] | CDK2 % Inhibition at 0.03 μM (CDK2/cyclin A; at 0.03 μM) [%] | HCT-116 % Inhibition at 0.25 μM (HCT-116 cell line; HCT-116, at 0.25 μM) [%] | also measured
Nc1nc(Nc2ccc(C(=O)Nc3ccc(Cl)cc3CO)cc2)sc1C(=O)c1c(F)cccc1F [Example G341] | 10 | −11 | 23 | 93 |  |  |  | 
Nc1nc(Nc2ccc(C(=O)N[C@H](CO)Cc3ccccc3)cc2)sc1C(=O)c1c(F)cccc1F [Example G318] | 1 | −14 | 16 | 48 |  |  |  | 
COCCCNC(=O)c1ccc(Nc2nc(N)c(C(=O)c3c(F)cccc3F)s2)cc1 [Example G98] |  |  |  |  | 11 | −24 | 60 | HCT-116 % Inhibition at 0.1 μM (HCT-116 cell line; HCT-116, at 0.1 μM): 22%
Cc1cc(C)cc(NC(=O)c2ccc(Nc3nc(N)c(C(=O)c4c(F)cccc4F)s3)cc2)c1 [Example G297] | 8 | −3 | 0 | 45 |  |  |  | 
Nc1nc(Nc2ccc(C(=O)NCc3ccc(F)cc3F)cc2)sc1C(=O)c1c(F)cccc1F [Example G301] | 25 | 13 | 18 | 79 |  |  |  | 
CCOC(=O)c1cccc(NC(=O)c2ccc(Nc3nc(N)c(C(=O)c4c(F)cccc4F)s3)cc2)c1 [Example G24] |  |  |  |  | 11 | 7 | 58 | 
CC(=O)NC1CCN(C(=O)c2ccc(Nc3nc(N)c(C(=O)c4c(F)cccc4F)s3)cc2)C1 (stereo not shown) [Example G73] |  |  |  |  | 18 | 19 | 56 | 
Nc1nc(Nc2ccc(C(=O)Nc3cccc4ncccc34)cc2)sc1C(=O)c1c(F)cccc1F [Example G67] |  |  |  |  | 12 | 25 | 82 | 
Nc1nc(Nc2ccc(C(=O)NCCN3CCNC3=O)cc2)sc1C(=O)c1c(F)cccc1F [Example G229] | 9 | 12 | 8 | 44 |  |  |  | 
CN1CCC[C@H]1CNC(=O)c1ccc(Nc2nc(N)c(C(=O)c3ccccc3F)s2)cc1 [Example A67, 4-{4-Amino-5-(2-fluoro-benzoyl)-thiazol-2-ylamino}-N-(1-methyl-pyrrolidin-2S-ylmethyl)-benzamide Trifluoroacetic Acid Salt] |  |  |  |  |  |  |  | Ki (human CDK4/cyclin D3): 0.088 µM; Ki (CDK2/cyclin A): 0.013 µM; IC50 (HCT-116 cell line): 0.077 µM
Nc1nc(Nc2ccc(C(=O)NCc3ccco3)cc2)sc1C(=O)c1c(F)cccc1F [Example G249] | 40 | 39 | 37 | 80 |  |  |  | 
C=CCN(CC=C)C(=O)c1ccc(Nc2nc(N)c(C(=O)c3c(F)cccc3F)s2)cc1 [Example G272] | 0 | −20 | 10 | 47 |  |  |  | 
COCCNC(=O)c1ccc(Nc2nc(N)c(C(=O)c3c(F)cccc3F)s2)cc1 [Example G164] |  |  |  |  | 19 | 13 | 59 | HCT-116 % Inhibition at 0.1 μM (HCT-116 cell line; HCT-116, at 0.1 μM): 0%
CN(CCC(O)c1ccccc1)C(=O)c1ccc(Nc2nc(N)c(C(=O)c3c(F)cccc3F)s2)cc1 (stereo not shown) [Example G370] | 17 | 22 | 19 | 52 |  |  |  | 
Nc1nc(Nc2ccc(C(=O)N3CCCC3)cc2)sc1C(=O)c1c(F)cccc1F [Example G47] |  |  |  |  | 6 | −15 | 53 | 
C[C@@H](NC(=O)c1ccc(Nc2nc(N)c(C(=O)c3c(F)cccc3F)s2)cc1)c1ccccc1 [Example G166] |  |  |  |  | 4 | 22 | 90 | HCT-116 % Inhibition at 0.1 μM (HCT-116 cell line; HCT-116, at 0.1 μM): 8%
COc1cc(Nc2nc(N)c(C(=O)c3c(F)cccc3F)s2)ccc1C(=O)NC(C)CN(C)C (stereo not shown) [Example A60, 4-[4-Amino-5-(2,6-difluoro-benzoyl)-thiazol-2-ylamino]-N-(2RS-dimethylamino-1-methyl-ethyl)-2-methoxy-benzamide] |  |  |  |  |  |  |  | Ki (human CDK4/cyclin D3): 0.031 µM; Ki (CDK2/cyclin A): 0.091 µM; IC50 (HCT-116 cell line): 0.2 µM
Nc1nc(Nc2ccc(C(=O)NCc3ccccc3F)cc2)sc1C(=O)c1c(F)cccc1F [Example G221] | 34 | 29 | 20 | 74 |  |  |  | 
CC(=O)N[C@@H]1CCN(C(=O)c2ccc(Nc3nc(N)c(C(=O)c4c(F)cccc4F)s3)cc2)C1 [Example G373] | 10 | −7 | 31 | 48 |  |  |  | 
Cc1ccncc1C(=O)c1sc(Nc2ccc(C(=O)NC[C@@H]3CCCN3C)cc2)nc1N [Example A59, 4-{4-Amino-5-[1-(4-methyl-pyridin-3-yl)methanoyl]-thiazol-2-ylamino}-N-(1-methyl-pyrrolidin-2S-ylmethyl)-benzamide Hydrochloride Salt] |  |  |  |  |  |  |  | Ki (human CDK4/cyclin D3): 0.097 µM; Ki (CDK2/cyclin A): 0.83 µM; IC50 (HCT-116 cell line): 2.9 µM
CN(CCO)C(=O)c1ccc(Nc2nc(N)c(C(=O)c3c(F)cccc3F)s2)cc1 [Example G17] |  |  |  |  | 7 | 2 | 45 | 
Nc1nc(Nc2ccc(C(=O)NC3CCOC3=O)cc2)sc1C(=O)c1c(F)cccc1F (stereo not shown) [Example G129] |  |  |  |  | 19 | 11 | 51 | HCT-116 % Inhibition at 0.1 μM (HCT-116 cell line; HCT-116, at 0.1 μM): 0%
CN(CCC1OCCO1)C(=O)c1ccc(Nc2nc(N)c(C(=O)c3c(F)cccc3F)s2)cc1 [Example G387] | 11 | 10 | 32 | 52 |  |  |  | 
CC(O)CNC(=O)c1ccc(Nc2nc(N)c(C(=O)c3c(F)cccc3F)s2)cc1 (stereo not shown) [Example G110] |  |  |  |  | 17 | 15 | 52 | HCT-116 % Inhibition at 0.1 μM (HCT-116 cell line; HCT-116, at 0.1 μM): 0%
Cc1cccc(NC(=O)c2ccc(Nc3nc(N)c(C(=O)c4c(F)cccc4F)s3)cc2)c1 [Example G280] | 9 | −7 | 7 | 70 |  |  |  | 
Cc1cccc(CNC(=O)c2ccc(Nc3nc(N)c(C(=O)c4c(F)cccc4F)s3)cc2)c1C [Example G294] | 29 | 30 | 15 | 74 |  |  |  | 
COC(=O)CN(C)C(=O)c1ccc(Nc2nc(N)c(C(=O)c3c(F)cccc3F)s2)cc1 [Example G50] |  |  |  |  | 10 | 9 | 61 | 
CN(C)C1CCN(C(=O)c2ccc(Nc3nc(N)c(C(=O)c4c(F)cccc4F)s3)cc2)C1 (stereo not shown) [Example G37] |  |  |  |  | 25 | 11 |  | HCT-116 % Inhibition at 0.25 μM (HCT-116 cell line; HCT-116, at 0.25 μM, 0.25 µM): 65%
COC(=O)c1cccc(NC(=O)c2ccc(Nc3nc(N)c(C(=O)c4c(F)cccc4F)s3)cc2)c1 [Example G106] |  |  |  |  | 7 | 7 | 61 | HCT-116 % Inhibition at 0.1 μM (HCT-116 cell line; HCT-116, at 0.1 μM): 0%
